Source: patent US8596557B2, “Pest control aerosol sprayer” (Fumakilla Limited, priority 2008, dated 2013)

How the values were obtained:
[1] = Mode of spraying: average particle size and minimum temperature of target area (Test Example 3); assay type: physicochemical
Method: (§1) In Test Example 3, modes of spraying from the spray nozzle 10 in the head cap 2 were examined. This is to examine the refrigerating and behavioral inhibiting effects on a noxious insect by a noxious insect behavioral inhibitor A which is sprayed from the spray nozzle 10. Specifically, a wooden flooring was prepared on which a glass ring (having a diameter of 9 cm and a height of 6 cm) was placed. […] And, one female adult of Periplaneta fuliginosa is introduced inside of the glass ring. On the other hand, two different head caps were prepared, one provided with a single spray nozzle 10 and the other provided with a pressure reducer means comprising an upper and a lower spray nozzle 10a and 10b. And, using them, the noxious insect behavioral inhibitor A is sprayed for 3 seconds toward the Periplaneta fuliginosa from a distance of 50 cm therefrom, and the state of the Periplaneta fuliginosa thereafter (possible knockdown after 2 minutes and after 1 hour and fatality after 24 hours) is observed. Further, the minimum temperatures of a target area of spraying are measured. And, the room temperature is 25° C., and the noxious insect behavioral inhibitor A is HFC-152a alone (100%). The two head caps 2, the one with the single spray nozzle 10 and the other with the two spray nozzles 10, are made to spray substantially at a identical rate of spraying.
(§2) Also, in Test Example 3, noxious insect behavioral inhibitors containing HFO-1234ze alone (100%), at a content of 75% and at a content of 50% were examined. What is mixed is dimethyl ether.

[2] = Back-fire test of aerosol sprayers loaded with various gases (Test Example 1); settings: sprayed 5 seconds towards burner flame, sprayer at 25° C.
Method: (§3) Test Example 1 relates to back-fire tests for the aerosol sprayer using various gases. Specifically, aerosol sprayers loaded with various gases acting as both propellant and refrigerant were prepared. And, after these aerosol sprayers were immersed in a thermostatic bath at 25° C. for 1 hour, each of them was arranged with the flame, as a fire origin, of an ignited burner so that the spray nozzle of its head cap and the flame lied horizontally in the same height. And, each gas was sprayed from the spray nozzle of the head cap in the aerosol sprayer for 5 seconds towards the flame as the fire origin to check if there was a backfire. This was repeated a plurality of times. Here, the fire origin was spaced from the spray nozzle at a distance of 15 cm and at a distance of 60 cm.
Further, HFO-1234ze as another alternative for chlorofluorocarbon was also subjected to the same backfire tests as for HFC-152a and HFC-134a in Text Example 1 mentioned above.

[3] = Back-fire test on content of HFC-152a / HFO-1234ze mixed with LPG or dimethyl ether (Test Example 2); settings: varied mixture ratio, sprayed 5 seconds towards burner flame
Method: as §3, with “In Test” for “Test”, “Example 2, aerosol sprayers using HFC-152a as an alternative for chlorofluorocarbon were tested on its content. This, too,” for “Example 1”, “back-fire tests.” for “back-fire tests for the aerosol sprayer using various gases.”, “with HFC-152a alone” for “with various gases acting as both propellant”, “and mixtures of HFC-15a with LPG or dimethyl ether (in varied mixture ratio)” for “and refrigerant”, “15” for “15 cm and at a distance of 60”
Further, HFO-1234ze as another alternative for chlorofluorocarbon was also tested on its content as in Text Example 2 above. Specifically, aerosol sprayers loaded with HFO-1234ze alone and mixtures of HFO-1234ze with LPG or dimethyl ether (in varied mixture ratio) were prepared. […]

Periplaneta fuliginosa = assay: Biological test: knockdown and fatality after 3 second spray from 50 cm (Test Example 3); assay type: in vivo; settings: female adult
Method: as §1, §2

[4] = two spray nozzles (upper 1.5 mm, lower 1.8 mm)
[5] = two spray nozzles (upper 1.5 mm, lower 1.8 mm), n = 10
[6] = single spray nozzle (1.5 mm diameter), n = 10

Average particle size ([1]; single spray nozzle (1.5 mm diameter)) [μm] | SMILES | Average particle size [1, 4] [μm] | Backfire, 15 cm distant from Fire Origin [2] | Backfire, 60 cm distant from Fire Origin [2] | Backfire, 15 cm distant from Fire Origin (content test) [3] | Fatality after 24 hours (Periplaneta fuliginosa; [5]) [%] | Knockdown rate after 2 minutes (Periplaneta fuliginosa; [5]) [%] | Knockdown rate after 1 hour (Periplaneta fuliginosa; [5]) [%] | Fatality after 24 hours (Periplaneta fuliginosa; [6]) [%] | Knockdown rate after 1 hour (Periplaneta fuliginosa; [6]) [%] | Knockdown rate after 2 minutes (Periplaneta fuliginosa; single spray nozzle (1.5 mm diameter), n = 10, room temperature 25° C.) [%]
 | FC=CC(F)(F)F [HFO-1234ze (100%), 1,3,3,3-tetrafluoropropene] | 120 | Not Backfired | Not Backfired | Not Back-fired | 60 | 100 | 100 |  |  | 
 | COC [dimethyl ether (100%), dimethyl ether, reference compound] |  | Backfired | Backfired |  |  |  |  |  |  | 
 | FCC(F)(F)F [HFC-134a (100%)] |  | Not Backfired | Not Backfired |  |  |  |  |  |  | 
57 | CC(F)F [HFC-152a (100%), 1,1-difluoroethane] | 97 | Not Backfired | Not Backfired | Not Back-fired | 100 | 100 | 100 | 10 | 40 | 90
